22 compounds from patent publication US10618901B2 (GlaxoSmithKline Intellectual Property Development Limited, priority 2014, dated 2020) can be followed below.

Where two headings read alike, the source gives them in different places.

The test has as its target T1, LRRK2 Ser935 phosphorylation in SH-SY5Y cells over-expressing recombinant full length LRRK2 (Homo sapiens, UniProt Q5S007).
T1 construct: A BacMam virus expressing full length recombinant LRRK2 was purchased from Invitrogen; host or cells: SH-SY5Y (BacMam transduction)
Nature of the test: Recombinant cellular LRRK2 AlphaScreen assay. Format: cell-based. The method in brief:
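SH-SY5Y cells transduced with BacMam full-length LRRK2 (MOI 50, 24 h) were treated with compound, top final 10 uM, for 60 min at 37° C. Lysates were assayed by AlphaScreen for pSer935 and total LRRK2. Dose-response fitted to a sigmoidal model.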

Where [1] appears, read: read-out: pIC50 in the recombinant cellular LRRK2 alphaScreen assay (converted).
Where [2] appears, read: LRRK2 Ser935 phosphorylation, 60 minutes, read-out: recombinant cellcular LRRK2 alphaScreen assay (pIC50) (converted).
Where [3] appears, read: LRRK2 Ser935 phosphorylation, 60 minutes.

T1 sequence (Q5S007 whole entry): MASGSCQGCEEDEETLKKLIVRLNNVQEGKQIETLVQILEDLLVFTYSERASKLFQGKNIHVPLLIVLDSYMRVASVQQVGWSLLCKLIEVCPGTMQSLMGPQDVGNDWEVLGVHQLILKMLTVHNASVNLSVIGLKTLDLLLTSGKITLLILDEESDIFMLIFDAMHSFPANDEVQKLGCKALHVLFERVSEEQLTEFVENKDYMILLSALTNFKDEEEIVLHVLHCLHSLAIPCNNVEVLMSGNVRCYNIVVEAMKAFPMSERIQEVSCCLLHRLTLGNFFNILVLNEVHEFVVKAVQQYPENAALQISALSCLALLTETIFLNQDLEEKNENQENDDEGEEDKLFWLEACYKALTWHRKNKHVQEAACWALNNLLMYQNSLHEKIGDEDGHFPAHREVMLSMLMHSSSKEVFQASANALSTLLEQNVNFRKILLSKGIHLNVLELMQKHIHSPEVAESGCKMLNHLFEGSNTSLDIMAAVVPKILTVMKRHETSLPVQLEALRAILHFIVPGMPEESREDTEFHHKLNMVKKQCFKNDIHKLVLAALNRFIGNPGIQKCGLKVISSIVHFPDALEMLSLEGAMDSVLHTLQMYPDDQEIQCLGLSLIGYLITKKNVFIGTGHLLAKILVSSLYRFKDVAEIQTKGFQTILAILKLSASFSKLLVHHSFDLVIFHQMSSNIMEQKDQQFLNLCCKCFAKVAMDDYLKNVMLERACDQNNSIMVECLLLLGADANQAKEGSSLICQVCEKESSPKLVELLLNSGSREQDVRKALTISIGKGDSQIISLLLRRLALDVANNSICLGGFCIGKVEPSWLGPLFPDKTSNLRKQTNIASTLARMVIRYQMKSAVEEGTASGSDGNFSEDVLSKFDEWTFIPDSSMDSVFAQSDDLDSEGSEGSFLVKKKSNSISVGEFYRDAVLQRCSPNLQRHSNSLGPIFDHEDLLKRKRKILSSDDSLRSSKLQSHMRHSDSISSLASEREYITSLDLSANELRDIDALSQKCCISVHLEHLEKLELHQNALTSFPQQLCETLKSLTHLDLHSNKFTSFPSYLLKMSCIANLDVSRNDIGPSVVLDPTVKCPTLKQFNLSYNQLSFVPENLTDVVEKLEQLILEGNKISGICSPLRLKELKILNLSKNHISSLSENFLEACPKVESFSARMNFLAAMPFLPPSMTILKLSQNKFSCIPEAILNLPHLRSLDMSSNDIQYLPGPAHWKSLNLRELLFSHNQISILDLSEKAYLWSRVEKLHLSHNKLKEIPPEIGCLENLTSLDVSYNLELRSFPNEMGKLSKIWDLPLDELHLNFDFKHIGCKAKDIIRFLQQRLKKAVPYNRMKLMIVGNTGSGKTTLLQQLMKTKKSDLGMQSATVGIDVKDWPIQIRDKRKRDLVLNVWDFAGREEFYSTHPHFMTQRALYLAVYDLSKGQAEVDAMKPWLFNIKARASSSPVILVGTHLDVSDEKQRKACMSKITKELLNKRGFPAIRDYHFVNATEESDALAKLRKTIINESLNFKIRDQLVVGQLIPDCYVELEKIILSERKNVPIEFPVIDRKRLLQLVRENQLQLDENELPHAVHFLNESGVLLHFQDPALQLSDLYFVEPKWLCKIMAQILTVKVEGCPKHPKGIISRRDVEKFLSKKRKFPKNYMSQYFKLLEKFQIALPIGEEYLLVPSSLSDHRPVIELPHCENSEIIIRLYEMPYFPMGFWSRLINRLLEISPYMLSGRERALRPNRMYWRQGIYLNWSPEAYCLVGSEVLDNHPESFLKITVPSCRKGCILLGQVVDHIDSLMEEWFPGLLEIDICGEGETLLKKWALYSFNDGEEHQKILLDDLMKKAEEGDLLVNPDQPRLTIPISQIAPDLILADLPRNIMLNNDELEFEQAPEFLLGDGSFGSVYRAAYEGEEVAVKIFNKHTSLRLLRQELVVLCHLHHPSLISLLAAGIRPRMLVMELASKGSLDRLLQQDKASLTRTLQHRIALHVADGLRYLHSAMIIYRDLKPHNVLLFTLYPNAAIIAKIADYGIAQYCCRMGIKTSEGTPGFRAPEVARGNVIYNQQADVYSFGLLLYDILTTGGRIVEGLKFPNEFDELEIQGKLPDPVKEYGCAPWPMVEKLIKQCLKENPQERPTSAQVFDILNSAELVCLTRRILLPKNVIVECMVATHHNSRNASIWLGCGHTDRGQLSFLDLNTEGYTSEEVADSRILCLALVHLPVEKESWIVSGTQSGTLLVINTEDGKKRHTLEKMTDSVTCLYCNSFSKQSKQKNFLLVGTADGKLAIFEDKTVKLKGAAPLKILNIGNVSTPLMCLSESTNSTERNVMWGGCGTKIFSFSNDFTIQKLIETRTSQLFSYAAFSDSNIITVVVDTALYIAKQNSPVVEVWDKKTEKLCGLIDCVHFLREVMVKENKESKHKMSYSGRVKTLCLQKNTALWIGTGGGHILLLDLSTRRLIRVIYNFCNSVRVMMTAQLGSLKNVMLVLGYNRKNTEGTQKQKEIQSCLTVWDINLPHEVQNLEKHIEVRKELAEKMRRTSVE

On to `CCOc1nc(Nc2cnn(C3CCCC3(C)O)c2C)nc2[nH]ccc12` (racemic) [Example E70, Trans-2-(4-((4-ethoxy-7H-pyrrolo-[2,3-d]pyrimidin-2-yl)amino)-5-methyl-1H-pyrazol-1-yl)-1-methylcyclopentanol], for which the IC50 under setting [1] is at most 100 nM.

On to `CCOc1nc(Nc2cnn(C3CCN(C)C3)c2C)nc2[nH]ccc12` (single isomer, unassigned) [Example E14, 4-ethoxy-N-(5-methyl-1-(1-methylpyrrolidin-3-yl)-1H-pyrazol-4-yl)-7H-pyrrolo-[2,3-d]-pyrimidin-2-amine], for which the IC50 runs as follows: under setting [2], 63.1 nM; under setting [1], at most 100 nM.

For `CCOc1nc(Nc2cnn(C3CCN(C4COC4)C3)c2C)nc2[nH]ccc12` (single isomer, unassigned) [Example E67, 4-ethoxy-N-(5-methyl-1-(1-(oxetan-3-yl)-pyrrolidin-3-yl)-1H-pyrazol-4-yl)-7H-pyrrolo-[2,3-d]pyrimidin-2-amine], the IC50 under setting [1] was at most 100 nM.

Regarding `CCOc1nc(Nc2cnn([C@H]3CCN(C4COC4)C[C@@H]3F)c2Cl)nc2[nH]ccc12` (single isomer, unassigned) [Example E104], the IC50 runs as follows: under setting [2], 31.6 nM; under setting [1], at most 100 nM.

Regarding `CCOc1nc(Nc2cnn([C@@H]3CCN(C4COC4)C[C@H]3F)c2Cl)nc2[nH]ccc12` (single isomer, unassigned) [Example E105], the IC50 was 25.1 nM under setting [2] and at most 100 nM under setting [1].

`CCOc1nc(Nc2cnn(C3CCOCC3C)c2C)nc2[nH]ccc12` (single isomer, unassigned) [Example E113, (cis)-4-ethoxy-N-(5-methyl-1-(3-methyltetrahydro-2H-pyran-4-yl)-1H-pyrazol-4-yl)-7H-pyrrolo[2,3-d]pyrimidin-2-amine]: the IC50 is 25.1 nM under setting [2] and at most 100 nM under setting [1].

As for `CCOc1nc(Nc2cnn(C3CN(C)CCC3(F)F)c2C)nc2[nH]ccc12` (single isomer, unassigned) [Example E121, N-(1-(4,4-difluoro-1-methylpiperidin-3-yl)-5-methyl-1H-pyrazol-4-yl)-4-ethoxy-7H-pyrrolo[2,3-d]pyrimidin-2-amine], the IC50 is, setting by setting: under setting [2], 0.631 nM; under setting [1], at most 100 nM.

For the compound `CCOc1nc(Nc2cnn(C3CN(C4COC4)CCC3(F)F)c2Cl)nc2[nH]ccc12` (single isomer, unassigned) [Example E124, N-(5-chloro-1-(4,4-difluoro-1-(oxetan-3-yl)piperidin-3-yl)-1H-pyrazol-4-yl)-4-ethoxy-7H-pyrrolo[2,3-d]pyrimidin-2-amine], the IC50 under setting [2] is 0.794 nM.

As for `CCOc1nc(Nc2cnn(C3CCN(C4COC4)CC3(F)F)c2Cl)nc2[nH]ccc12` (single isomer, unassigned) [Example E134, N-(5-chloro-1-(3,3-difluoro-1-(oxetan-3-yl)piperidin-4-yl)-1H-pyrazol-4-yl)-4-ethoxy-7H-pyrrolo[2,3-d]pyrimidin-2-amine], the IC50 under setting [2] is 5.01 nM.

As for `CCOc1nc(Nc2cnn(C3CN(C4COC4)CCO3)c2Cl)nc2[nH]ccc12` (single isomer, unassigned) [Example E141, N-(5-chloro-1-(4-(oxetan-3-yl)morpholin-2-yl)-1H-pyrazol-4-yl)-4-ethoxy-7H-pyrrolo[2,3-d]pyrimidin-2-amine], the IC50 by setting is: under setting [2], 15.8 nM; under setting [1], at most 100 nM.

Regarding `CCOc1nc(Nc2cnn(CC(C)(C)O)c2C)nc2[nH]ccc12` [Example E3, 1-(4-((4-ethoxy-7H-pyrrolo-[2,3-d]pyrimidin-2-yl)amino)-5-methyl-1H-pyrazol-1-yl)-2-methylpropan-2-ol], the IC50 was 79.4 nM under setting [2] and at most 100 nM under setting [1].

`CCOc1nc(Nc2cnn(CCOC)c2Cl)nc2[nH]ccc12` [Example E21, N-(5-chloro-1-(2-methoxyethyl)-1H-pyrazol-4-yl)-4-ethoxy-7H-pyrrolo-[2,3-d]-pyrimidin-2-amine]: the IC50 under setting [1] is at most 100 nM.

For the compound `CCOc1nc(Nc2cnn(C3CCOCC3)c2C2CC2)nc2[nH]ccc12` [Example E44, N-(5-cyclopropyl-1-(tetrahydro-2H-pyran-4-yl)-1H-pyrazol-4-yl)-4-ethoxy-7H-pyrrolo-[2,3-d]pyrimidin-2-amine], the IC50 under setting [2] is 63.1 nM and the IC50 under setting [1] was at most 100 nM.

Turning to `CCOc1nc(Nc2cnn(CCN3CCOCC3)c2C)nc2[nH]ccc12` [Example E45, 4-ethoxy-N-(5-methyl-1-(2-morpholinoethyl)-1H-pyrazol-4-yl)-7H-pyrrolo-[2,3-d]pyrimidin-2-amine], the IC50 runs as follows: under setting [2], 20 nM; under setting [1], at most 100 nM.

With `CCOc1nc(Nc2cnn(C3CC(O)C3)c2C)nc2[nH]ccc12` (stereo not shown) [Example E52, 3-(4-((4-ethoxy-7H-pyrrolo-[2,3-d]-pyrimidin-2-yl)-amino)-5-methyl-1H-pyrazol-1-yl)cyclo-butanol], the IC50 was 12.6 nM under setting [2] and at most 100 nM under setting [1].

As to `CCOc1nc(Nc2cnn(C3CC(N4CCOCC4)C3)c2C)nc2[nH]ccc12` (stereo not shown) [Example E86, 4-ethoxy-N-(5-methyl-1-(3-morpholinocyclobutyl)-1H-pyrazol-4-yl)-7H-pyrrolo[2,3-d] pyrimidin-2-amine], the IC50 is, setting by setting: under setting [2], 39.8 nM; under setting [1], at most 100 nM.

Turning to `CCOc1nc(Nc2cnn(CCN3CCO[C@H](C(F)F)C3)c2C)nc2[nH]ccc12` [Example E100, (S)—N-(1-(2-(2-(difluoromethyl)morpholino)ethyl)-5-methyl-1H-pyrazol-4-yl)-4-ethoxy-7H-pyrrolo[2,3-d]pyrimidin-2-amine], the IC50 runs as follows: under setting [2], 31.6 nM; under setting [1], at most 100 nM.

With “cis-3-(4-((4-ethoxy-7H-pyrrolo[2,3-d]pyrimidin-2-yl)amino)-5-methyl-1H-pyrazol-1-yl)cyclopentanol [Example E56]”, the “recombinant cellcular LRRK2 alphaScreen assay (pIC50)” value under setting [3] came out at 7.8.

With “trans-2-(4-((4-ethoxy-7H-pyrrolo-[2,3-d]pyrimidin-2-yl)amino)-5-methyl-1H-pyrazol-1-yl)-cyclopentanol [Example E40]”, the “recombinant cellcular LRRK2 alphaScreen assay (pIC50)” value under setting [3] worked out at 7.8.

For “trans-2-(4-((4-ethoxy-7H-pyrrolo-[2,3-d]pyrimidin-2-yl)amino)-5-methyl-1H-pyrazol-1-yl)-cyclopentanol [Example E41]”, the “recombinant cellcular LRRK2 alphaScreen assay (pIC50)” value under setting [3] is reported as 7.8.

With “trans-2-(5-chloro-4-((4-ethoxy-7H-pyrrolo-[2,3-d]-pyrimidin-2-yl)amino)-1H-pyrazol-1-yl)-cyclopentanol [Example E37]”, the “recombinant cellcular LRRK2 alphaScreen assay (pIC50)” value under setting [3] was 7.6.

For the compound “trans-2-(5-chloro-4-((4-ethoxy-7H-pyrrolo-[2,3-d]-pyrimidin-2-yl)amino)-1H-pyrazol-1-yl)cyclopentanol [Example E38]”, under setting [3], the “recombinant cellcular LRRK2 alphaScreen assay (pIC50)” value amounted to 7.6.
